Earlier results, collected in US12678435B2, “Prevention and/or treatment of contrast-induced acute kidney injury” (Saghmos Therapeutics Inc., priority 2016, dated 2026).

Test system: patients with high serum creatinine levels undergoing coronary angiography/angioplasty
Details: four Phase 2 clinical trials; compared with isotonic saline; published in Onbasili 2007, Rahman 2012, Shehata 2014, Liu 2015

## COc1ccc(CN2CCNCC2)c(OC)c1OC [Trimetazidine]
  reducing the risk of contrast-induced nephropathy (CIN): more effective than isotonic saline in reducing the risk of contrast-induced nephropathy (CIN)
